Two compounds from US11202834B2, “Synthesis and processing of poly(pro-drug) materials for extended drug release and uses thereof” (RENSSELAER POLYTECHNIC INSTITUTE, priority 2018, dated 2021) can be followed below.

Data set [1] relates to whole dorsal root ganglion (DRG). Nature of the data set: neurite extension of whole dorsal root ganglion cultured on scaffolds. It is filed as cell-based. As to conditions: DRG on PLLA/PLLA scaffolds with 100 nM bolus of exogenous E2 at the beginning of culture. Here is the method:
To examine the bioactivity of E2 released during poly(pro-drug) material degradation and the effects of sustained E2 release on neurons, whole dorsal root ganglion (DRG) were cultured on poly(pro-drug) material films to examine the ability of the poly(pro-drug) material to promote neurite extension. To analyze material-derived neurite extension, DRG were cultured onto three types of scaffolds: 1) PLLA fibers electrospun onto a PLLA film (PLLA/PLLA), 2) PLLA fibers electrospun on to a PLLA film with a 100 nM bolus of exogenous E2 at the beginning of culture (PLLA/PLLA+Exo E2), and 3) PLLA fibers electrospun onto a poly(pro-drug) material film (PLLA/P1). […] PLLA fibers were used in this experiment to isolate the effects of E2 released the poly(pro-drug) material as the only factor influencing DRG neurite extension.

For data set [2] the following is noted: not told.

Consider `C[C@]12CC[C@@H]3c4ccc(O)cc4CC[C@H]3[C@@H]1CC[C@@H]2O` [E2, 17β-Estradiol], for which, in data set [1], the “average neurite outgrowth from DRG” value is 526.7±273.4 μm. On to poly(L-lactic acid) [PLLA], for which the “Young's modulus (Er)” value in data set [2] was found to be 5.38±1.06 GPa.
